In the oligonucleotide strings, read from the 5' end, every base follows the letter of its sugar. An asterisk marks phosphorothioate; unmarked linkages are phosphodiester. Other units and linkages are bracketed, terminal groups are in braces. A string of capitals states the bases alone. e = 2'-O-(2-methoxyethyl) (MOE); [5mC] = 5-methylcytosine; d = 2'-deoxy (DNA)
Experiments:
[1] = tested on: differentiated adipocytes; experiment: Hallmark genes and triglycerides in differentiated adipocytes; type: cell-based, human; conditions: Table 28; differentiated adipocytes transfected day nine post-differentiation; 250 nM oligonucleotide
Excerpt: The effect of the oligomeric compounds of the present invention targeting miRNAs on the expression of markers of cellular differentiation was examined in differentiated adipocytes.
As previously described, the HSL, aP2, Glut4, and PPARγ genes play important rolls in the uptake of glucose and the metabolism and utilization of fats. Also as previously described, an increase in triglyceride content is another well-established marker for adipocyte differentiation. Human white preadipocytes (Zen-Bio Inc., Research Triangle Park, N.C.) were grown in preadipocyte media (ZenBio Inc.). After the cells reached confluence (approximately three days), they were exposed to differentiation media (Zen-Bio, Inc.) containing a PPAR-γ agonist, IBMX, dexamethasone, and insulin for three days. Cells were then fed Adipocyte Medium (Zen-Bio, Inc.), which was replaced at 2 to 3 day intervals. One day before transfection, 96-well plates were seeded with 3000 cells/well. Cells were then transfected on day nine post-differentiation, according to standard published procedures with 250 nM oligonucleotide in LIPOFECTIN™ (Invitrogen Corporation, Carlsbad, Calif.) (Monia et al., J. Biol. Chem. 1993 268(19):14514-22). Oligomeric compounds were tested in triplicate on each 96-well plate, and the effect of TNF-α, known to inhibit adipocyte differentiation, was also measured in triplicate. Oligomeric compound treatments and transfectant-only negative controls may be measured up to six times per plate. On day twelve post-differentiation, cells were washed and lysed at room temperature, and the expression of the four hallmark genes, HSL, aP2, Glut4, and PPARγ, as well as triglyceride (TG) accumulation were measured in adipocytes transfected with the uniform 2′-MOE phosphorothioate (PS) previously described in Example 13 as well as the chimeric gapmer oligomeric compounds targeting the mir-143 miRNA and the mir-143 pri-miRNA described in Example 16. On day twelve post-differentiation, cells were lysed in a guanadinium-containing buffer and total RNA was harvested. The amount of total RNA in each sample was determined using a Ribogreen Assay (Molecular Probes, Eugene, Oreg.). Real-time PCR was performed on the total RNA using primer/probe sets for the adipocyte differentiation hallmark genes Glut4, HSL, aP2, and PPARγ. Triglyceride levels as well as mRNA levels for each of the four adipocyte differentiation hallmark genes are expressed relative to control levels (control=treatment with ISIS-29848 (SEQ ID NO: 737)).

IL-12 mRNA = IL-12 mRNA in LPS-activated primary murine macrophages; type: cell-based, mouse; conditions: normalized to LPS-treated cells without oligomeric compound; for IL-12 mRNA expression, −IFN % UTC: 300 nM oligomeric compound and LPS, no IFN-gamma pretreatment, single experiment; for IL-12 mRNA expression, +IFN % UTC: 300 nM oligomeric compound, stimulation with IFN-gamma and LPS, average of 2 experiments

327878 (antisense e[5mC]*eT*eA*eG*eT*eG*eG*eT*e[5mC]*e[5mC]*eT*eA*eA*eA*e[5mC]*eA*eT*eT*eT*e[5mC]*eA*e[5mC]) [compound 327878]
Glut4 [1]: 0.17
HSL [1]: 0.19
PPAR gamma [1]: 0.85
TG [1]: 1.08
aP2 [1]: 0.13

327880 (antisense eA*e[5mC]*eA*eA*eA*eT*eT*e[5mC]*eG*eG*eT*eT*e[5mC]*eT*eA*e[5mC]*eA*eG*eG*eG*eT*eA) [compound 327880]
Glut4 [1]: 0.76
HSL [1]: 0.93
PPAR gamma [1]: 1.86
TG [1]: 1.12
aP2 [1]: 1.14

327892 (antisense eA*e[5mC]*eT*eT*eT*e[5mC]*eG*eG*eT*eT*eA*eT*e[5mC]*eT*eA*eG*e[5mC]*eT*eT*eT*eA) [compound 327892]
Glut4 [1]: 0.42
HSL [1]: 0.62
PPAR gamma [1]: 1.01
TG [1]: 1.23
aP2 [1]: 0.81

327933 (antisense eA*eA*eG*eG*eG*eA*eT*eT*e[5mC]*e[5mC]*eT*eG*eG*eG*eA*eA*eA*eA*e[5mC]*eT*eG*eG*eA*e[5mC]) [compound 327933]
Glut4 [1]: 2.12
HSL [1]: 1.30
PPAR gamma [1]: 1.60
TG [1]: 1.63
aP2 [1]: 1.58

327954 (antisense eA*e[5mC]*eA*eA*eA*eG*eT*eT*e[5mC]*eT*eG*eT*eG*eA*eT*eG*e[5mC]*eA*e[5mC]*eT*eG*eA) [compound 327954]
Glut4 [1]: 0.61
HSL [1]: 1.35
PPAR gamma [1]: 1.46
TG [1]: 1.46
aP2 [1]: 1.23

328129 (antisense eA*eG*e[5mC]*e[5mC]*eT*e[5mC]*e[5mC]*eT*eT*e[5mC]*eT*eT*e[5mC]*eT*e[5mC]*eG*eT*eA*e[5mC]*eT*eA) [compound 328129]
IL-12 mRNA expression, −IFN % UTC (IL-12 mRNA): 87 % UTC
IL-12 mRNA expression, +IFN % UTC (IL-12 mRNA): 10 % UTC

328133 (eT*eG*eA*eA*eG*eG*eT*eT*e[5mC]*eG*eG*eA*eG*eA*eT*eA*eG*eG*e[5mC]*eT*eA; anti-miR) [compound 328133]
IL-12 mRNA expression, −IFN % UTC (IL-12 mRNA): 165 % UTC
IL-12 mRNA expression, +IFN % UTC (IL-12 mRNA): 62 % UTC

328137 (eG*eT*eA*eA*eG*e[5mC]*eG*e[5mC]*eA*eG*e[5mC]*eT*e[5mC]*e[5mC]*eA*e[5mC]*eA*eG*eG*e[5mC]*eT; anti-miR) [compound 328137]
IL-12 mRNA expression, −IFN % UTC (IL-12 mRNA): 213 % UTC
IL-12 mRNA expression, +IFN % UTC (IL-12 mRNA): 12 % UTC

328138 (eG*eA*eG*e[5mC]*eT*eG*e[5mC]*eT*e[5mC]*eA*eG*e[5mC]*eT*eG*eG*e[5mC]*e[5mC]*eA*eT*e[5mC]*eA; anti-miR) [compound 328138]
IL-12 mRNA expression, −IFN % UTC (IL-12 mRNA): 277 % UTC
IL-12 mRNA expression, +IFN % UTC (IL-12 mRNA): 31 % UTC

328382 (e[5mC]*eA*eG*eA*e[5mC]*dT*d[5mC]*d[5mC]*d[5mC]*dA*dA*d[5mC]*dT*dG*dA*e[5mC]*e[5mC]*eA*eG*eA) [compound 328382]
Glut4 [1]: 0.75
HSL [1]: 0.53
PPAR gamma [1]: 0.97
TG [1]: 1.33
aP2 [1]: 0.92

338664 (antisense e[5mC]*eA*eG*eA*e[5mC]*eT*e[5mC]*e[5mC]*e[5mC]*eA*eA*e[5mC]*eT*eG*eA*e[5mC]*e[5mC]*eA*eG*eA) [compound 338664]
Glut4 [1]: 1.08
HSL [1]: 1.01
PPAR gamma [1]: 1.06
TG [1]: 1.72
aP2 [1]: 0.77

341800 (antisense AAGCCCAAAAGGAGAAUUCUUUG; all 2'-MOE, all phosphorothioate, methylation of C and T or U not given here) [compound 341800]
IL-12 mRNA expression, −IFN % UTC (IL-12 mRNA): 180 % UTC
IL-12 mRNA expression, +IFN % UTC (IL-12 mRNA): 100 % UTC

342673 (antisense eA*eG*eA*e[5mC]*eT*eA*eG*e[5mC]*eG*eG*eT*eA*eT*e[5mC]*eT*eT*eT*eA*eT*e[5mC]*e[5mC]*e[5mC]) [compound 342673]
IL-12 mRNA expression, −IFN % UTC (IL-12 mRNA): 91 % UTC

Source: US8178506B2, “Oligomeric compounds and compositions for use in modulation of small non-coding RNAs” (Regulus Therapeutics Inc., priority 2003, dated 2012)
